Results on 15 compounds are retold here after patent US6133275A, “3-phenylpyrrolidine alpha-1 adrenergic compounds” (Abbott Laboratories, priority 1998, dated 2000).

Test [1] addresses T1, α1a (Rat) (Rattus norvegicus, UniProt P43140).
T1 sequence (P43140 1-466): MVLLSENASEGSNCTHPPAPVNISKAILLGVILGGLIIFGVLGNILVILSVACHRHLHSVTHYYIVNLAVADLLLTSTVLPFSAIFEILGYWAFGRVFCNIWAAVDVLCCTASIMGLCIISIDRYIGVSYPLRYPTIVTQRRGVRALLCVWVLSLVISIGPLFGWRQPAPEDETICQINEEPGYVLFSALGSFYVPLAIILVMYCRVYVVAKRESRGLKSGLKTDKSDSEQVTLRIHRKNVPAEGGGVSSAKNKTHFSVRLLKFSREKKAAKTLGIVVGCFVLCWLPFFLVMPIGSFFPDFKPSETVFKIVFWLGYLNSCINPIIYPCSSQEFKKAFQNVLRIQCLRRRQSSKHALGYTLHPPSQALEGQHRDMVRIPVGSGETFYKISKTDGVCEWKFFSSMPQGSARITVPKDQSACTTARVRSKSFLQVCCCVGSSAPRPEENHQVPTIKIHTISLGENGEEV
Description: Radioligand binding, displacement of [3H]-prazosin from cloned α1a (rat) expressed in LTK cells. Particulars: [3H]-prazosin 0.2 nM; cloned rat α1a in LTK cell membranes; 25° C., 50 minutes.

In test [2] the target is T2, α1a (Bovine) (Bos taurus, UniProt P18130).
T2 sequence (P18130 1-466): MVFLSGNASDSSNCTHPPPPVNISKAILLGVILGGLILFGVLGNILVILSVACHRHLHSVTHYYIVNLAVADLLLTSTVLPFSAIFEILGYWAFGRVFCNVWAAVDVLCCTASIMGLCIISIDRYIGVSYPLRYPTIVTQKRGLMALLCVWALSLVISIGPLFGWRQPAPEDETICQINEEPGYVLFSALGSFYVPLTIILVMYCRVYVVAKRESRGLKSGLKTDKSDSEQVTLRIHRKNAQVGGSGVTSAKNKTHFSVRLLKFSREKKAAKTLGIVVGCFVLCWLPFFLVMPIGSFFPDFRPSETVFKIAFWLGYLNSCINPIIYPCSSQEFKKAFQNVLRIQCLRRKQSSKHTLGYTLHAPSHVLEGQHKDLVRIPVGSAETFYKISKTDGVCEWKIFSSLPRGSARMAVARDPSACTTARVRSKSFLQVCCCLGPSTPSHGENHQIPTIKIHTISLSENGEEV
Description: Radioligand binding, displacement of [3H]-prazosin from cloned α1a (bovine) expressed in LTK cells. The settings on record: [3H]-prazosin 0.2 nM; cloned bovine α1a in LTK cell membranes; 25° C., 50 minutes. For orientation: Displacement assays read how much labelled ligand stays bound in the presence of the test substance.

Test [3] deals with T3, α1b (Hamster) (Mesocricetus auratus, UniProt P18841).
T3 sequence (P18841 1-515): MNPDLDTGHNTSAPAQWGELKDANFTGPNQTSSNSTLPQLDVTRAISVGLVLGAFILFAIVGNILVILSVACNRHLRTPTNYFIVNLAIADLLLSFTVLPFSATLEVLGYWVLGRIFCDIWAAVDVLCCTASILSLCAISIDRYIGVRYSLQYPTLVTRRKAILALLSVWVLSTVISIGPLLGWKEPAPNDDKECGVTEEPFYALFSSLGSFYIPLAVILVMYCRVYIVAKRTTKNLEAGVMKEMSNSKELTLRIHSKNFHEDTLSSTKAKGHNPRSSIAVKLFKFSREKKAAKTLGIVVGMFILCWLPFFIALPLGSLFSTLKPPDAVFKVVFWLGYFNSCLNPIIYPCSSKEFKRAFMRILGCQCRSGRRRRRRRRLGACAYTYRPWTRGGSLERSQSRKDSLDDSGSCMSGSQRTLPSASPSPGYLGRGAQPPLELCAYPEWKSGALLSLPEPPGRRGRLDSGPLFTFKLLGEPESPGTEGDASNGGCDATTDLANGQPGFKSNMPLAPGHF
The experiment in a line: Radioligand binding, displacement of [3H]-prazosin from cloned α1b (hamster) expressed in LTK cells. Particulars: [3H]-prazosin 0.2 nM; cloned hamster α1b in LTK cell membranes; 25° C., 50 minutes.

In test [4] the target is T4, α1d (rat) (Rattus norvegicus, UniProt P23944).
T4 sequence (P23944 1-561): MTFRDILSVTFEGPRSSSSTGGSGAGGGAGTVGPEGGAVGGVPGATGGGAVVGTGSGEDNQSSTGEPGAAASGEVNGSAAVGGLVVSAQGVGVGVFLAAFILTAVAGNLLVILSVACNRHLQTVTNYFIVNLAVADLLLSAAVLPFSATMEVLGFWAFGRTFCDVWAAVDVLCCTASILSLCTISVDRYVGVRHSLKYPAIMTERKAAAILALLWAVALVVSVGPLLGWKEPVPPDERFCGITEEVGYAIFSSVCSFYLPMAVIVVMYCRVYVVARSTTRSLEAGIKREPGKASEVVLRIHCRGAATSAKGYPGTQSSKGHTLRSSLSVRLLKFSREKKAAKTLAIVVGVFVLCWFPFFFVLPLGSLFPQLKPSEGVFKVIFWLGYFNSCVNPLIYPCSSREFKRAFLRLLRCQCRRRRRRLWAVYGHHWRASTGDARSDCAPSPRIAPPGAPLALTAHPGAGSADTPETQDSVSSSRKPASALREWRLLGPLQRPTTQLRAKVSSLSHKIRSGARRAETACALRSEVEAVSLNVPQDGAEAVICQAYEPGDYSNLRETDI
The experiment in a line: Radioligand binding, displacement of [3H]-prazosin from cloned α1d (rat) expressed in LTK cells. Particulars: [3H]-prazosin 0.2 nM; cloned rat α1d in LTK cell membranes; 25° C., 50 minutes.

Structures are written as SMILES. Structures can show the parent of a compound that is named as a salt.

As to `COc1ccccc1[C@H]1CCN(CCn2c(=O)[nH]c3c(sc4ccccc43)c2=O)C1` [Example 1, (R)-3-[2-[3-(2-Methoxyphenyl)-1-pyrrolidinyl]ethyl]-[1]benzothieno[3,2-d]pyrimidine-2,4(1H,3H)-dione, Monohydrochloride], the Ki amounted to 1.8 nM in test [1], 0.13 nM in test [2], 0.94 nM in test [3] and 0.82 nM in test [4].
For `COc1ccccc1[C@H]1CCN(CCCCn2c(=O)[nH]c3c(sc4ccccc43)c2=O)C1` [Example 2, (R)-3-[4-[3-(2-Methoxyphenyl)-1-pyrrolidinyl]butyl]-[1]benzothieno[3,2-d]pyrimidine-2,4(1H,3H)-dione Monohydrochloride], in that order: 0.18 nM, 0.02 nM, 0.62 nM and 0.03 nM.
For `COc1cccc([C@H]2CCN(CCn3c(=O)[nH]c4c(sc5ccccc54)c3=O)C2)c1` [Example 3, (R)-3-[2-[3-(3-Methoxyphenyl)-1-pyrrolidinyl]ethyl]-[1]benzothieno[3,2-d]pyrimidine-2,4(1H,3H)-dione Monohydrochloride], the Ki in test [1] turned out to be 34 nM; in test [2], 5.95 nM; in test [3], 59.7 nM; in test [4], 20 nM.
The matching figures for `COc1ccccc1[C@H]1CCN(CCn2c(=O)[nH]c3c(sc4cccnc43)c2=O)C1` [Example 4, (R)-3-[2-[3-(2-Methoxyphenyl)-1-pyrrolidinyl]ethyl]pyrido[2',3':4,5]thieno[3,2-d]pyrimidine-2,4(1H,3H)-dione bis(hydrochloride) Salt]: 2.61 nM, 0.83 nM, 1.52 nM and 2.38 nM.
The matching figures for `COc1ccccc1[C@H]1CCN(CCCn2c(=O)[nH]c3c(sc4cccnc43)c2=O)C1` [Example 5, (R)-3-[3-[3-(2-Methoxyphenyl)-1-pyrrolidinyl]propyl]pyrido[2',3':4,5]thieno[3,2-d]pyrimidine-2,4(1H,3H)-dione Dihydrochloride]: 2.05 nM, 1.25 nM, 9.68 nM and 2.25 nM.
For `COc1ccccc1[C@H]1CCN(CCCCn2c(=O)[nH]c3c(sc4cccnc43)c2=O)C1` [Example 6, (R)-3-[4-[3-(2-Methoxyphenyl)-1-pyrrolidinyl]butyl]pyrido[2',3':4,5]thieno[3,2-d]pyrimidine-2,4(1H,3H)-dione Dihydrochloride], in that order: 0.12 nM, 0.05 nM, 1.77 nM and 0.22 nM.
Turning to `COc1ccccc1[C@H]1CCN(CCCCCn2c(=O)[nH]c3c(sc4cccnc43)c2=O)C1` [Example 7, (R)-3-[5-[3-(2-Methoxyphenyl)-1-pyrrolidinyl]pentyl]pyrido[2',3':4,5]thieno[3,2-d]pyrimidine-2,4(1H,3H)-dione, Dihydrochloride], the Ki in test [1] came to 2.11 nM; in test [2], 0.18 nM; in test [3], 4.86 nM; in test [4] it was 2.13 nM.
For `COc1ccccc1[C@H]1CCN(CCCCn2c(=O)[nH]c3c(sc4ncccc43)c2=O)C1` [Example 8, (R)-3-[4-[3-(2-Methoxyphenyl)-1-pyrrolidinyl]butyl]pyrido[3',2':4,5]thieno[3,2-d]pyrimidine-2,4(1H,3H)-dione, Dihydrochloride], in that order: 0.12 nM, 0.06 nM, 1.76 nM and 0.09 nM.
As to `COc1ccccc1[C@H]1CCN(CCCCCn2c(=O)[nH]c3c(sc4ncccc43)c2=O)C1` [Example 9, (R)-3-[5-[3-(2-methoxyphenyl)-1-pyrrolidinyl]pentyl]pyrido[3',2':4,5]thieno[3,2-d]pyrimidine-2,4(1H,3H)-dione, Dihydrochloride], the Ki was 3.3 nM in test [1], 0.32 nM in test [2], 7.38 nM in test [3] and 2.35 nM in test [4].
`COc1ccccc1[C@H]1CCN(CCCCn2c(=O)[nH]c3c(sc4ccc(Cl)nc43)c2=O)C1` [Example 10, (R)-8-chloro-3-[4-[3-(2-methoxyphenyl)-1-pyrrolidinyl]butyl]pyrido[2',3':4,5]thieno[3,2-d]pyrimidine-2,4(1H,3H)-dione, Dihydrochloride]: the Ki in test [1] was 0.22 nM; in test [2] it was 0.05 nM; in test [3] it was 1.18 nM; in test [4] it was 0.06 nM.
For `COc1ccc2sc3c(=O)n(CCCCN4CC[C@H](c5ccccc5OC)C4)c(=O)[nH]c3c2n1` [Example 11, (R)-8-methoxy-3-[4-[3-(2-methoxyphenyl)-1-pyrrolidinyl]butyl]pyrido-[2',3':4,5]thieno[3,2-d]pyrimidine-2,4(1H,3H)-dione, Dihydrochloride], in that order: 0.67 nM, 0.11 nM, 1.79 nM and 0.12 nM.
For `COc1ccccc1[C@H]1CCN(CCCCN2C(=O)c3ccccc3C2=O)C1` [Example 12, (R)-2-[4-[3-(2-methoxyphenyl)-1-pyrrolidinyl]butyl]-1H-isoindole-1,3(2H)-dione, Monohydrochloride], in that order: 0.32 nM, 0.06 nM, 0.96 nM and 0.28 nM.
The matching figures for `COc1ccccc1[C@H]1CCN(CCCCn2c(=O)[nH]c3c(sc4nccnc43)c2=O)C1` [Example 13, (R)-3-[4-[3-(2-Methoxyphenyl)-1-pyrrolidinyl]butyl]pyrazino[2',3':4,5]thieno[3,2-d]pyrimidine-2,4(1H,3H)-dione, Dihydrochloride]: 0.21 nM, 0.07 nM, 2.99 nM and 0.36 nM.
`COc1ccccc1[C@H]1CCN(CCCCn2c(=O)[nH]c3c(sc4ncc(Cl)nc43)c2=O)C1` [Example 14, (R)-8-Chloro-3-[4-[3-(2-methoxyphenyl)-1-pyrrolidinyl]butyl]pyrazino[2',3':4,5]thieno[3,2-d]pyrimidine-2,4(1H,3H)-dione, Dihydrochloride]: the Ki in test [1] was 0.22 nM; in test [2] it was 0.09 nM; in test [3], 5.9 nM; in test [4] it was 0.47 nM.
The matching figures for `COc1cnc2sc3c(=O)n(CCCCN4CC[C@H](c5ccccc5OC)C4)c(=O)[nH]c3c2n1` [Example 15, (R)-8-Methoxy-3-[4-[3-(2-methoxyphenyl)-1-pyrrolidinyl]butyl]pyrazino-[2',3':4,5]thieno[3,2-d]pyrimidine-2,4(1H,3H)-dione, Dihydrochloride]: 0.26 nM, 0.06 nM, 2.37 nM and 0.15 nM.

Broadly, the Ki is the equilibrium dissociation constant of an inhibitor or competing ligand from its target. A lower Ki goes with tighter binding.
